Assays:
[1] = tested on: Acinetobacter baumannii-calcoaceticus complex; conditions: colistin-based therapy, cited from earlier work
[2] = in vivo
Description: The modified RIFLE criteria includes: Risk (R): increased creatinine level 1.5× or glomerular filtration rate (GFR) decreased >25%, • Injury (I): increased creatinine level 2× or GFR decreased >50%, Failure (F): increased creatinine level 3×, GFR decreased >75%, or creatinine level ≥4 mg/dL, Loss (L): persistent acute renal failure or complete loss of function for >4 weeks, and End-Stage Kidney Disease (ESKD; E): ESKD for >3 months.

[3] = tested on: Acinetobacter baumannii-calcoaceticus complex; format: in vivo, human; conditions: Part A, CRABC m-MITT Population
Description: The Phase 3 trial employed a non-inferiority design, as discussed and agreed with the FDA DAI. A Test of Cure (TOC) visit was completed 7±2 days after the last dose, and survival was assessed at Day 28.
Patients were treated with either XACDURO® (1 g sulbactam and 1 g durlobactam, or renally adjusted dose) intravenously over 3 hours every 6 hours (n=91) or colistin 2.5 mg/kg (or renally adjusted dose) intravenously over 30 minutes every 12 hours after an initial loading dose of colistin 2.5 to 5 mg/kg (n=86). Both treatment arms also received 1 g imipenem/1 g cilastatin (or renally adjusted dose) intravenously every 6 hours as background therapy for potential HABP/VABP pathogens other than Acinetobacter baumannii-calcoaceticus complex. Patients received up to 14 days of therapy.
Part A was a randomized, assessor-blinded, comparative portion of the Phase 3 trial. Patients were randomized (1:1) to 1.0 g sulbactam/1.0 g durlobactam or 2.5 mg/kg colistin. All patients in both treatment groups received 1.0 g imipenem/1.0 g cilastatin as background therapy to treat non-ABC co-infecting pathogens.
Randomization was stratified by infection type (HABP/VABP/ventilated pneumonia [VP] vs bacteremia), severity of illness, and geography.
Eligible patients were ≥18 years of age with a diagnosis of a serious infection caused by ABC as either a single pathogen or member of a polymicrobial infection confirmed by culture.
Non-inferiority was concluded if the upper limit of the 2-sided 95% CI was <20%.
Secondary efficacy endpoints for Parts A and B included: 28-day all-cause mortality in the m-MITT and ITT Populations, 14-day all-cause mortality in the CRABC m-MITT and m-MITT Populations, Clinical cure at TOC, End of Treatment (EOT), and Late Follow-Up (LFU) in the CRABC m-MITT Population, and Microbiological favorable assessment at TOC, EOT, and LFU in the CRABC m-MITT Population.

Substance: colistin
- mortality rate, random effects analysis ([1]; literature review, DerSimonian and Laird, 95% CI 32%, 47%): 40%
- mortality rate, fixed effects analysis ([1]; literature review, 95% CI 35%, 45%): 40%
- mortality rate, random effects meta-analysis updated with 4 additional studies ([1]; 95% CI 36%, 47%): 41%
- incidence of nephrotoxicity (modified RIFLE criteria) [2]: 37.6%
- 28-day all-cause mortality [3]: 32.3%
- clinical cure rate at TOC ([3]; Test of Cure visit): 40.3%
- microbiological favorable assessment at TOC ([3]; eradication and presumed eradication): 41.9%
